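How tested: cells in 96-well plates exposed to compound for 48 hours at five concentrations. TGI is the concentration that stops growth completely.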
Key:
Assay in all cases: growth of human tumour cells (NCI), 48 h
COLO 205 colon = test system: COLO 205 colon
NCI-H23 lung = test system: NCI-H23 lung
SNB-75 CNS = test system: SNB-75 CNS
786-0 renal = test system: 786-0 renal
SF-539 CNS = test system: SF-539 CNS
SF-268 CNS = test system: SF-268 CNS
NCI-H460 lung = test system: NCI-H460 lung
SK-MEL-28 melanoma = test system: SK-MEL-28 melanoma
HT29 colon = test system: HT29 colon
RPMI-8226 leukemia = test system: RPMI-8226 leukemia

Cc1ccc(/C(Cl)=C/C=C(C#N)C#N)cc1
TGI (COLO 205 colon): 12.1 µM
TGI (NCI-H23 lung): 3.36 µM
TGI (SNB-75 CNS): 37.6 µM
TGI (786-0 renal): 3.77 µM
TGI (SF-539 CNS): 6.37 µM
TGI (SF-268 CNS): 21.3 µM
TGI (NCI-H460 lung): > 100 µM
TGI (SK-MEL-28 melanoma): 5.12 µM

NCCCCC(NC(=O)C(N)Cc1ccc(O)cn1)C(=O)O (stereo not given)
TGI (COLO 205 colon): > 100 µM
TGI (NCI-H23 lung): > 100 µM
TGI (HT29 colon): > 100 µM
TGI (786-0 renal): > 100 µM
TGI (SF-539 CNS): > 100 µM
TGI (SF-268 CNS): > 100 µM
TGI (RPMI-8226 leukemia): > 100 µM
TGI (NCI-H460 lung): > 100 µM
TGI (SK-MEL-28 melanoma): > 100 µM

CCOC(=O)N(NC(=O)NC(C)C)c1ccccc1
TGI (COLO 205 colon): > 100 µM
TGI (NCI-H23 lung): > 100 µM
TGI (HT29 colon): > 100 µM
TGI (SNB-75 CNS): > 100 µM
TGI (786-0 renal): > 100 µM
TGI (SF-539 CNS): > 100 µM
TGI (NCI-H460 lung): > 100 µM
TGI (SK-MEL-28 melanoma): > 100 µM

CC(C)(C)OC(=O)CN1C(=O)CC1CC(=O)c1ccccc1 (stereo not given)
TGI (COLO 205 colon): 49.6 µM
TGI (NCI-H23 lung): 36.5 µM
TGI (HT29 colon): 37.4 µM
TGI (786-0 renal): 32.9 µM
TGI (SF-539 CNS): 34.9 µM
TGI (SF-268 CNS): 37.7 µM
TGI (RPMI-8226 leukemia): 15.3 µM
TGI (NCI-H460 lung): 77.1 µM
TGI (SK-MEL-28 melanoma): 36.7 µM

CC(CCC(=O)O)(c1ccc(O)cc1)c1ccc(O)cc1
TGI (NCI-H23 lung): > 100 µM
TGI (HT29 colon): > 100 µM
TGI (786-0 renal): > 100 µM
TGI (SF-268 CNS): > 100 µM
TGI (NCI-H460 lung): > 100 µM
TGI (SK-MEL-28 melanoma): > 100 µM

COC(=O)c1cc(C)ccc1C1CN=NC12Cc1ccc(C)cc1C2=O (stereo not given)
TGI (COLO 205 colon): 29.3 µM
TGI (NCI-H23 lung): > 100 µM
TGI (HT29 colon): > 100 µM
TGI (SNB-75 CNS): > 100 µM
TGI (786-0 renal): > 100 µM
TGI (SF-539 CNS): > 100 µM
TGI (SF-268 CNS): > 100 µM
TGI (NCI-H460 lung): > 100 µM
TGI (SK-MEL-28 melanoma): > 100 µM

O=C(Cn1c2c(c3ccccc31)CCCC2)N1CCCC1
TGI (COLO 205 colon): > 100 µM
TGI (NCI-H23 lung): > 100 µM
TGI (HT29 colon): > 100 µM
TGI (786-0 renal): > 100 µM
TGI (SF-539 CNS): > 100 µM
TGI (RPMI-8226 leukemia): > 100 µM
TGI (NCI-H460 lung): > 100 µM
TGI (SK-MEL-28 melanoma): > 100 µM

[Cl-].[Rh+3].c1cnc2c(c1)ccc1cccnc12.c1cnc2c(c1)ccc1cccnc12.c1cnc2c(c1)ccc1cccnc12
TGI (NCI-H23 lung): > 100 µM
TGI (HT29 colon): > 100 µM
TGI (SNB-75 CNS): > 100 µM
TGI (786-0 renal): > 100 µM
TGI (SF-539 CNS): > 100 µM
TGI (NCI-H460 lung): > 100 µM

CC(C)(C)/C(=N\Nc1nc2ccccc2[nH]1)c1ccccn1
TGI (COLO 205 colon): > 100 µM
TGI (NCI-H23 lung): > 100 µM
TGI (HT29 colon): > 100 µM
TGI (786-0 renal): > 100 µM
TGI (SF-539 CNS): > 100 µM
TGI (SF-268 CNS): > 100 µM
TGI (RPMI-8226 leukemia): 35.4 µM
TGI (NCI-H460 lung): > 100 µM
TGI (SK-MEL-28 melanoma): > 100 µM

O=C(N/N=C/C=C/c1ccccc1)[C@H](O)[C@@H](O)C(=O)N/N=C/C=C/c1ccccc1
TGI (COLO 205 colon): > 100 µM
TGI (NCI-H23 lung): > 100 µM
TGI (SF-539 CNS): > 100 µM
TGI (SF-268 CNS): > 100 µM
TGI (RPMI-8226 leukemia): > 100 µM
TGI (NCI-H460 lung): > 100 µM
TGI (SK-MEL-28 melanoma): > 100 µM

O=C1CSSCC(=O)Nc2ccccc2N1
TGI (COLO 205 colon): > 100 µM
TGI (NCI-H23 lung): > 100 µM
TGI (HT29 colon): > 100 µM
TGI (786-0 renal): > 100 µM
TGI (SF-539 CNS): > 100 µM
TGI (SF-268 CNS): > 100 µM
TGI (RPMI-8226 leukemia): > 100 µM
TGI (NCI-H460 lung): > 100 µM
TGI (SK-MEL-28 melanoma): > 100 µM

N#CC1C(=O)N(c2ccccc2)NC12OC(=O)c1ccncc12 (stereo not given)
TGI (COLO 205 colon): > 20 µM
TGI (NCI-H23 lung): > 20 µM
TGI (HT29 colon): > 20 µM
TGI (786-0 renal): > 20 µM
TGI (SF-539 CNS): > 20 µM
TGI (RPMI-8226 leukemia): > 20 µM
TGI (NCI-H460 lung): > 20 µM
TGI (SK-MEL-28 melanoma): > 20 µM

N#CC12CNCC1CN=N2 (stereo not given)
TGI (COLO 205 colon): > 100 µM
TGI (NCI-H23 lung): > 100 µM
TGI (HT29 colon): > 100 µM
TGI (SNB-75 CNS): > 100 µM
TGI (786-0 renal): > 100 µM
TGI (SF-268 CNS): > 100 µM
TGI (NCI-H460 lung): > 100 µM
TGI (SK-MEL-28 melanoma): > 100 µM

COc1cc(/C=C2/SC(c3ccccc3)N(c3ccccc3Cl)C2=O)cc(OC)c1OC (stereo not given)
TGI (COLO 205 colon): 95.5 µM
TGI (NCI-H23 lung): 81.7 µM
TGI (786-0 renal): > 100 µM
TGI (SF-539 CNS): 36.6 µM
TGI (SF-268 CNS): > 100 µM
TGI (RPMI-8226 leukemia): 52.3 µM
TGI (NCI-H460 lung): > 100 µM
TGI (SK-MEL-28 melanoma): > 100 µM

O=C(O)COCC(=O)N(CCOCCN(Cc1ccccc1)C(=O)COCC(=O)O)Cc1ccccc1
TGI (COLO 205 colon): > 100 µM
TGI (NCI-H23 lung): > 100 µM
TGI (HT29 colon): > 100 µM
TGI (786-0 renal): > 100 µM
TGI (SF-539 CNS): > 100 µM
TGI (SF-268 CNS): > 100 µM
TGI (RPMI-8226 leukemia): > 100 µM
TGI (NCI-H460 lung): > 100 µM
TGI (SK-MEL-28 melanoma): > 100 µM

COc1cc(/C=N\N(C)C)cc(/C=N/N(C)C)c1O
TGI (COLO 205 colon): 46.9 µM
TGI (NCI-H23 lung): > 100 µM
TGI (HT29 colon): 48 µM
TGI (786-0 renal): 74.1 µM
TGI (SF-539 CNS): 37.1 µM
TGI (SF-268 CNS): > 100 µM
TGI (RPMI-8226 leukemia): 50.2 µM
TGI (NCI-H460 lung): > 100 µM
TGI (SK-MEL-28 melanoma): 59.7 µM

OC1(c2ccc(Cl)cc2)C(N2CCCC2)c2ccccc2C2=NCCN21 (stereo not given)
TGI (COLO 205 colon): 23.9 µM
TGI (NCI-H23 lung): 92.7 µM
TGI (HT29 colon): 32.4 µM
TGI (786-0 renal): > 100 µM
TGI (SF-539 CNS): 39.4 µM
TGI (SF-268 CNS): > 100 µM
TGI (RPMI-8226 leukemia): 32.1 µM
TGI (NCI-H460 lung): > 100 µM
TGI (SK-MEL-28 melanoma): 31.9 µM

C[N+](C)(C)CCCSc1nc2ccccc2[nH]1
TGI (COLO 205 colon): > 100 µM
TGI (NCI-H23 lung): > 100 µM
TGI (HT29 colon): > 100 µM
TGI (786-0 renal): > 100 µM
TGI (SF-268 CNS): > 100 µM
TGI (RPMI-8226 leukemia): > 100 µM
TGI (NCI-H460 lung): > 100 µM
TGI (SK-MEL-28 melanoma): > 100 µM

O=c1[nH]c(=O)n(CCOc2ccccc2)cc1Nc1ccccc1
TGI (COLO 205 colon): > 100 µM
TGI (NCI-H23 lung): > 100 µM
TGI (HT29 colon): > 100 µM
TGI (786-0 renal): > 100 µM
TGI (SF-268 CNS): > 100 µM
TGI (RPMI-8226 leukemia): > 100 µM
TGI (NCI-H460 lung): > 100 µM
TGI (SK-MEL-28 melanoma): > 100 µM

O=C1c2[nH]c3ccc(Br)cc3c2CCN1Cc1ccc(Cl)cc1
TGI (COLO 205 colon): 34.5 µM
TGI (NCI-H23 lung): 32.3 µM
TGI (HT29 colon): > 100 µM
TGI (SNB-75 CNS): 38.5 µM
TGI (786-0 renal): 24.1 µM
TGI (SF-539 CNS): 25.5 µM
TGI (SF-268 CNS): 33.2 µM
TGI (SK-MEL-28 melanoma): 31.6 µM

c1ccc2c(c1)CC1=C(O2)c2ccccc2OC1
TGI (COLO 205 colon): 38.3 µM
TGI (NCI-H23 lung): > 100 µM
TGI (HT29 colon): > 100 µM
TGI (786-0 renal): 32.6 µM
TGI (SF-539 CNS): 71.6 µM
TGI (SF-268 CNS): > 100 µM
TGI (RPMI-8226 leukemia): 67.3 µM

Source: PubChem BioAssay (NCI)
